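Growth conditions: 96-well plates. Treatment: test compound, 48 hours, 5 concentrations. Analysis: linear interpolation between bracketing concentrations; unreached endpoints set to highest concentration. GI50 marks 50% less growth. TGI: concentration producing complete growth inhibition.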
How the values were obtained:
Test in all cases: NCI tumour cell line growth inhibition, 48 h
A498 renal = test system: A498 renal
DU-145 prostate = test system: DU-145 prostate
HCC-2998 colon = test system: HCC-2998 colon
HCT-15 colon = test system: HCT-15 colon
HL-60(TB) leukemia = test system: HL-60(TB) leukemia
HS 578T breast = test system: HS 578T breast
KM12 colon = test system: KM12 colon
LOX IMVI melanoma = test system: LOX IMVI melanoma
M14 melanoma = test system: M14 melanoma
MCF7 breast = test system: MCF7 breast
MDA-MB-435 = test system: MDA-MB-435
NCI-H226 lung = test system: NCI-H226 lung
NCI-H23 lung = test system: NCI-H23 lung
NCI-H460 lung = test system: NCI-H460 lung
OVCAR-3 ovarian = test system: OVCAR-3 ovarian
OVCAR-4 ovarian = test system: OVCAR-4 ovarian
SK-MEL-5 melanoma = test system: SK-MEL-5 melanoma
SNB-75 CNS = test system: SNB-75 CNS
SW-620 colon = test system: SW-620 colon
UACC-257 melanoma = test system: UACC-257 melanoma

Brc1ccc2c(c1)c(-c1nc(-c3c[nH]c4ncccc34)cs1)cn2CCCN1CCCCC1
GI50 (A498 renal): 2.32 µM | TGI (A498 renal): 9.16 µM | GI50 (DU-145 prostate): 1.77 µM | TGI (DU-145 prostate): 3.18 µM | GI50 (HCC-2998 colon): 1.82 µM | TGI (HCC-2998 colon): 3.41 µM | GI50 (HCT-15 colon): 1.66 µM | TGI (HCT-15 colon): 3.08 µM | GI50 (HL-60(TB) leukemia): 1.9 µM | TGI (HL-60(TB) leukemia): 4.57 µM | GI50 (HS 578T breast): 2.13 µM | TGI (HS 578T breast): 5.55 µM | GI50 (KM12 colon): 1.82 µM | TGI (KM12 colon): 3.48 µM | GI50 (LOX IMVI melanoma): 1.68 µM | TGI (LOX IMVI melanoma): 3.08 µM | GI50 (M14 melanoma): 1.79 µM | TGI (M14 melanoma): 3.39 µM | GI50 (MCF7 breast): 1.62 µM | TGI (MCF7 breast): 3.11 µM | GI50 (MDA-MB-435): 1.86 µM | TGI (MDA-MB-435): 3.49 µM | GI50 (NCI-H226 lung): 1.89 µM | TGI (NCI-H226 lung): 5.01 µM | GI50 (NCI-H23 lung): 1.75 µM | TGI (NCI-H23 lung): 3.37 µM | GI50 (NCI-H460 lung): 1.78 µM | TGI (NCI-H460 lung): 3.37 µM | GI50 (OVCAR-3 ovarian): 1.89 µM | TGI (OVCAR-3 ovarian): 3.43 µM | GI50 (OVCAR-4 ovarian): 2.24 µM | TGI (OVCAR-4 ovarian): 4.88 µM | GI50 (SK-MEL-5 melanoma): 1.74 µM | TGI (SK-MEL-5 melanoma): 3.14 µM | GI50 (SNB-75 CNS): 1.85 µM | TGI (SNB-75 CNS): 4.59 µM | GI50 (SW-620 colon): 1.75 µM | TGI (SW-620 colon): 3.31 µM | GI50 (UACC-257 melanoma): 1.9 µM | TGI (UACC-257 melanoma): 3.5 µM

From PubChem BioAssay (NCI)
